Legend:
[1] = test system: HT-1080; assay: Antiproliferative activity against human HT-1080 cells assessed as reduction in cell viability; format: functional, cell-based
[2] = test system: NCI-H2170; assay: Antiproliferative activity against human NCI-H2170 cells assessed as reduction in cell growth incubated for 72 hrs by CCK-8 assay; format: functional, cell-based; conditions: NCI-H2170, 72 h
[3] = test system: NCI-H358; assay: Antiproliferative activity against human NCI-H358 cells assessed as reduction in cell growth incubated for 72 hrs by CCK-8 assay; format: functional, cell-based; conditions: NCI-H358, 72 h
[4] = test system: LNCaP; assay: Antiproliferative activity against human LNCAP cells assessed as reduction in cell viability incubated for 24 hrs by MTT assay
[5] = Inhibition of NF-kappaB (unknown origin); parameters: species or system Homo sapiens
[6] = molecular target: S-phase kinase-associated protein 2 (Homo sapiens, UniProt Q13309); assay: Inhibition of SKP2 (unknown origin)
[7] = test system: PC-3; assay: Antitumor activity against human PC-3 cells xenografted in mouse assessed as tumor growth inhibition at 10 mg/kg, po administered once daily relative to control; format: functional; parameters: scale not given: the % may be the effect or the level left
[8] = test system: A549; assay: Antiproliferative activity against human A549 cells assessed as reduction in cell growth; format: functional, cell-based
[9] = test system: DU-145; assay: Antiproliferative activity against human DU-145 cells assessed as reduction in cell viability incubated for 48 hrs by CCK8 assay; format: functional, cell-based; conditions: DU-145, 48 h
[10] = test system: HGC-27; assay: Antiproliferative activity against human HGC-27 cells assessed as reduction in cell growth incubated for 24 hrs by CCK-8 assay; format: functional, cell-based; conditions: HGC-27, 24 h

Chain of S-phase kinase-associated protein 2 (Q13309 whole entry): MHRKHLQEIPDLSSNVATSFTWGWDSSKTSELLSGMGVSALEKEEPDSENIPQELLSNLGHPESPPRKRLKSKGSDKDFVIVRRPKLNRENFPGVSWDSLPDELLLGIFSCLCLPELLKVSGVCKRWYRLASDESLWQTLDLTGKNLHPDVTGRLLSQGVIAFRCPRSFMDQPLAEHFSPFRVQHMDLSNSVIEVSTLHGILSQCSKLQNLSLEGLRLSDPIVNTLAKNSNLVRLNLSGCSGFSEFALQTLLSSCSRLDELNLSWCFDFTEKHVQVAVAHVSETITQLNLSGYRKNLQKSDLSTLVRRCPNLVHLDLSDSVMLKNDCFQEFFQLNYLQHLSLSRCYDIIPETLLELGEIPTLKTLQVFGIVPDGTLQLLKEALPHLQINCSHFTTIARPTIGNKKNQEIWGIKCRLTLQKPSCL

With COc1cc(C)ccc1-c1nc(C)c(NC(=O)OCc2ccc3c(c2)nc2n3CCOC2)s1 the IC50 [1] was 0.00175 µM.
In the case of N#Cc1ccc(OCc2cccc(NC(=O)Nc3cc(F)cc(F)c3)c2)cc1, the IC50 [2] is reported as 4.12 µM and the IC50 [3] is reported as 5.8 µM.
With CS(=O)(=O)c1ccc(CCC(=O)Nc2ccccn2)cc1 the IC50 [4] was 3.56 µM.
CC(C)(C)c1cc2cc(NC(=O)c3cccs3)ccc2[nH]1 showed an IC50 [4] of 4.63 µM.
For O=C(O)c1ccc(N2N=C(Cc3ccccc3)/C(=C\c3ccc(-c4ccccc4F)o3)C2=O)cc1, the IC50 [5] was 5.2 µM.
For O=C(CCl)NC1CCN(c2cnc(-c3ccccc3)c(-c3ccccc3)n2)CC1, the IC50 [6] was 2.76 µM and the Activity [7] was 55.68%.
O=C(OCn1ncc(Cl)c(Cl)c1=O)c1cccc(C(F)(F)F)c1 gave an IC50 [4] of 1.71 µM.
Work on Cc1ccc(S(=O)(=O)Nc2cc(Oc3cc(F)cc(F)c3)cc3cccnc23)cc1 yielded an IC50 [1] of 0.08 µM and an IC50 [8] of 4.11 µM.
With O=C(Nc1cc(F)cc(F)c1)Nc1cccc(COc2ccc(Cl)cc2Cl)c1 the IC50 [2] was 5.55 µM and the IC50 [3] was 6.4 µM.
For CC(Oc1ccc(C#N)cc1)c1cccc(NC(=O)Nc2cc(F)cc(F)c2)c1 (configuration not stated), the IC50 [2] was 4.47 µM and the IC50 [3] was 4.73 µM.
In the case of CCOc1nc2cccc(C(=O)OCc3oc(=O)oc3C)c2n1Cc1ccc(-c2ccccc2-c2noc(=O)[nH]2)cc1 [AZILSARTAN MEDOXOMIL], the IC50 [9] is reported as 50 µM and the IC50 [10] is reported as 0.399 µM.
For C/C=C/C(=O)c1c(OC)cc(=O)oc1C, the IC50 [9] was 19.7 µM.
For O=C(Nc1cc(F)cc(F)c1)Nc1cccc(CNc2ccc(Cl)cc2)c1, the IC50 [2] was 7.31 µM and the IC50 [3] was 6.97 µM.
With CCn1nnc2cc(COC(=O)Nc3sc(-c4ccc(C)cc4OC)nc3C)ccc21 the IC50 [1] was 0.00164 µM.
Work on Cc1ccc(S(=O)(=O)Nc2cc(Oc3cccc(C#N)c3)cc3cccnc23)cc1 yielded an IC50 [1] of 6.83 µM and an IC50 [8] of 6.48 µM.
COc1ccc(Oc2cc(NS(=O)(=O)c3ccc(C)cc3)c3ncccc3c2)cc1 showed an IC50 [1] of 0.74 µM and an IC50 [8] of 4.09 µM.
O=C(Nc1cc(F)cc(F)c1)Nc1cccc(COc2ncc(Cl)cn2)c1 gave an IC50 [2] of 5.6 µM and an IC50 [3] of 5.85 µM.
Work on O=C(Nc1cc(F)cc(F)c1)Nc1cccc(COc2ccccc2Cl)c1 yielded an IC50 [2] of 7.93 µM and an IC50 [3] of 8.1 µM.
Work on O=C(Nc1cc(F)cc(F)c1)Nc1cccc(COc2ccc(Cl)cc2)c1 yielded an IC50 [2] of 3.19 µM and an IC50 [3] of 7.9 µM.
Work on CCCCc1ccc(NC(C)=O)c(C)c1 yielded an IC50 [4] of 1.09 µM.

Reference: ChEMBL document CHEMBL6071154, “A patent review of SCF E3 ligases inhibitors for cancer:Structural design, pharmacological activities and structure-activity relationship” (Eur J Med Chem, 2024)
